Test results from patent US20040236110A1, “Substituted 3-pyridyl indoles and indazoles as c17,20 lyase inhibitors” (priority 2001, published 2004).

melting point: 138 to 141 °C
SMILES: N#Cc1ccccc1-n1ccc2cc(-c3cccnc3)ccc21 [Example 58, 1-(2-Cyanophenyl)-5-(3-pyridyl)-1H-indole]
